From ChEMBL document CHEMBL5724914, “Linking interpersonal differences in gut microbiota composition and drug biotransformation activity” (2024)

Assay: (§1) The drug is tested on WLS-240 corresponding to human gut metagenome with ENA study accession number: PRJEB37062 and ENA sample accession number: ERS12561773 for biotransformation under anaerobic condition. The drug concentrations were measured over 9 timepoints collected between 0 and 24 hours of incubation by liquid-chromatography-coupled mass spectrometry (LC–MS)
Settings: 2 µM
Further: call rule not given here.

Row | Bacterial Biotransformation | SMILES
1 | Compound metabolized | O=C1[C@H](CC[C@H](O)c2ccc(F)cc2)[C@@H](c2ccc(O)cc2)N1c1ccc(F)cc1 [EZETIMIBE]
2 | Compound metabolized | CCN(CC)CCNC(C(=O)OCCC(C)C)c1ccccc1.Cl.Cl (stereo not given)
3 | Compound metabolized | CCOC(=O)[C@H](CCc1ccccc1)N[C@H]1CCc2ccccc2N(CC(=O)O)C1=O [BENAZEPRIL]

Assay: as §1, with “Z-002” for “WLS-240”, “rabbit” for “human”, “ERS12561802” for “ERS12561773”
Settings: 2 µM

Row | Bacterial Biotransformation | SMILES
4 | Compound NOT metabolized | O=C1[C@H](CC[C@H](O)c2ccc(F)cc2)[C@@H](c2ccc(O)cc2)N1c1ccc(F)cc1 [EZETIMIBE]
5 | Compound metabolized | CCN(CC)CCNC(C(=O)OCCC(C)C)c1ccccc1.Cl.Cl (stereo not given)
6 | Compound metabolized | CCOC(=O)[C@H](CCc1ccccc1)N[C@H]1CCc2ccccc2N(CC(=O)O)C1=O [BENAZEPRIL]

Settings: human gut metagenome, 24 h, 2 µM

Row | Bacterial Biotransformation | SMILES
7 | Compound metabolized | O=C1[C@H](CC[C@H](O)c2ccc(F)cc2)[C@@H](c2ccc(O)cc2)N1c1ccc(F)cc1 [EZETIMIBE]
8 | Compound metabolized | CCN(CC)CCNC(C(=O)OCCC(C)C)c1ccccc1.Cl.Cl (stereo not given)
9 | Compound metabolized | CCOC(=O)[C@H](CCc1ccccc1)N[C@H]1CCc2ccccc2N(CC(=O)O)C1=O [BENAZEPRIL]

Assay: as §1, with “WLS-098” for “WLS-240”, “ERS12561754” for “ERS12561773”
Settings: 2 µM

Row | Bacterial Biotransformation | SMILES
10 | Compound metabolized | O=C1[C@H](CC[C@H](O)c2ccc(F)cc2)[C@@H](c2ccc(O)cc2)N1c1ccc(F)cc1 [EZETIMIBE]
11 | Compound metabolized | CCN(CC)CCNC(C(=O)OCCC(C)C)c1ccccc1.Cl.Cl (stereo not given)
12 | Compound metabolized | CCOC(=O)[C@H](CCc1ccccc1)N[C@H]1CCc2ccccc2N(CC(=O)O)C1=O [BENAZEPRIL]

Settings: human gut metagenome, 24 h, 2 µM
Remark: another data set of the same source

Row | Bacterial Biotransformation | SMILES
13 | Compound NOT metabolized | O=C1[C@H](CC[C@H](O)c2ccc(F)cc2)[C@@H](c2ccc(O)cc2)N1c1ccc(F)cc1 [EZETIMIBE]
14 | Compound metabolized | CCN(CC)CCNC(C(=O)OCCC(C)C)c1ccccc1.Cl.Cl (stereo not given)
15 | Compound metabolized | CCOC(=O)[C@H](CCc1ccccc1)N[C@H]1CCc2ccccc2N(CC(=O)O)C1=O [BENAZEPRIL]

Settings: human gut metagenome, 24 h, 2 µM
Remark: another data set of the same source

Row | Bacterial Biotransformation | SMILES
16 | Compound NOT metabolized | O=C1[C@H](CC[C@H](O)c2ccc(F)cc2)[C@@H](c2ccc(O)cc2)N1c1ccc(F)cc1 [EZETIMIBE]
17 | Compound NOT metabolized | CCN(CC)CCNC(C(=O)OCCC(C)C)c1ccccc1.Cl.Cl (stereo not given)
18 | Compound metabolized | CCOC(=O)[C@H](CCc1ccccc1)N[C@H]1CCc2ccccc2N(CC(=O)O)C1=O [BENAZEPRIL]

Settings: human gut metagenome, 24 h, 2 µM
Remark: another data set of the same source

Row | Bacterial Biotransformation | SMILES
19 | Compound NOT metabolized | O=C1[C@H](CC[C@H](O)c2ccc(F)cc2)[C@@H](c2ccc(O)cc2)N1c1ccc(F)cc1 [EZETIMIBE]
20 | Compound NOT metabolized | CCN(CC)CCNC(C(=O)OCCC(C)C)c1ccccc1.Cl.Cl (stereo not given)
21 | Compound metabolized | CCOC(=O)[C@H](CCc1ccccc1)N[C@H]1CCc2ccccc2N(CC(=O)O)C1=O [BENAZEPRIL]

Settings: human gut metagenome, 24 h, 2 µM
Remark: another data set of the same source

Row | Bacterial Biotransformation | SMILES
22 | Compound NOT metabolized | O=C1[C@H](CC[C@H](O)c2ccc(F)cc2)[C@@H](c2ccc(O)cc2)N1c1ccc(F)cc1 [EZETIMIBE]
23 | Compound metabolized | CCN(CC)CCNC(C(=O)OCCC(C)C)c1ccccc1.Cl.Cl (stereo not given)
24 | Compound metabolized | CCOC(=O)[C@H](CCc1ccccc1)N[C@H]1CCc2ccccc2N(CC(=O)O)C1=O [BENAZEPRIL]

Settings: human gut metagenome, 24 h, 2 µM
Remark: another data set of the same source

Row | Bacterial Biotransformation | SMILES
25 | Compound NOT metabolized | O=C1[C@H](CC[C@H](O)c2ccc(F)cc2)[C@@H](c2ccc(O)cc2)N1c1ccc(F)cc1 [EZETIMIBE]
26 | Compound NOT metabolized | CCN(CC)CCNC(C(=O)OCCC(C)C)c1ccccc1.Cl.Cl (stereo not given)
27 | Compound NOT metabolized | CCOC(=O)[C@H](CCc1ccccc1)N[C@H]1CCc2ccccc2N(CC(=O)O)C1=O [BENAZEPRIL]

Assay: as §1, with “Z-012” for “WLS-240”, “to” for “to human gut”, “ERS12561812” for “ERS12561773”
Settings: 2 µM

Row | Bacterial Biotransformation | SMILES
28 | Compound NOT metabolized | O=C1[C@H](CC[C@H](O)c2ccc(F)cc2)[C@@H](c2ccc(O)cc2)N1c1ccc(F)cc1 [EZETIMIBE]
29 | Compound NOT metabolized | CCN(CC)CCNC(C(=O)OCCC(C)C)c1ccccc1.Cl.Cl (stereo not given)
30 | Compound metabolized | CCOC(=O)[C@H](CCc1ccccc1)N[C@H]1CCc2ccccc2N(CC(=O)O)C1=O [BENAZEPRIL]

Assay: as §1, with “Z-010” for “WLS-240”, “to” for “to human gut”, “ERS12561810” for “ERS12561773”
Settings: 2 µM

Row | Bacterial Biotransformation | SMILES
31 | Compound NOT metabolized | O=C1[C@H](CC[C@H](O)c2ccc(F)cc2)[C@@H](c2ccc(O)cc2)N1c1ccc(F)cc1 [EZETIMIBE]
32 | Compound metabolized | CCN(CC)CCNC(C(=O)OCCC(C)C)c1ccccc1.Cl.Cl (stereo not given)
33 | Compound metabolized | CCOC(=O)[C@H](CCc1ccccc1)N[C@H]1CCc2ccccc2N(CC(=O)O)C1=O [BENAZEPRIL]

Assay: as §1, with “WLS-007” for “WLS-240”, “ERS12561742” for “ERS12561773”
Settings: 2 µM

Row | Bacterial Biotransformation | SMILES
34 | Compound metabolized | O=C1[C@H](CC[C@H](O)c2ccc(F)cc2)[C@@H](c2ccc(O)cc2)N1c1ccc(F)cc1 [EZETIMIBE]
35 | Compound metabolized | CCN(CC)CCNC(C(=O)OCCC(C)C)c1ccccc1.Cl.Cl (stereo not given)
36 | Compound metabolized | CCOC(=O)[C@H](CCc1ccccc1)N[C@H]1CCc2ccccc2N(CC(=O)O)C1=O [BENAZEPRIL]

Settings: human gut metagenome, 24 h, 2 µM
Remark: another data set of the same source

Row | Bacterial Biotransformation | SMILES
37 | Compound metabolized | O=C1[C@H](CC[C@H](O)c2ccc(F)cc2)[C@@H](c2ccc(O)cc2)N1c1ccc(F)cc1 [EZETIMIBE]
38 | Compound metabolized | CCN(CC)CCNC(C(=O)OCCC(C)C)c1ccccc1.Cl.Cl (stereo not given)
39 | Compound metabolized | CCOC(=O)[C@H](CCc1ccccc1)N[C@H]1CCc2ccccc2N(CC(=O)O)C1=O [BENAZEPRIL]

Assay: as §1, with “Z-011” for “WLS-240”, “mouse” for “human”, “ERS12561811” for “ERS12561773”
Settings: 2 µM

Row | Bacterial Biotransformation | SMILES
40 | Compound NOT metabolized | O=C1[C@H](CC[C@H](O)c2ccc(F)cc2)[C@@H](c2ccc(O)cc2)N1c1ccc(F)cc1 [EZETIMIBE]
41 | Compound NOT metabolized | CCN(CC)CCNC(C(=O)OCCC(C)C)c1ccccc1.Cl.Cl (stereo not given)
42 | Compound metabolized | CCOC(=O)[C@H](CCc1ccccc1)N[C@H]1CCc2ccccc2N(CC(=O)O)C1=O [BENAZEPRIL]

Assay: as §1, with “Z-026” for “WLS-240”, “to” for “to human gut”, “ERS12561825” for “ERS12561773”
Settings: 2 µM

Row | Bacterial Biotransformation | SMILES
43 | Compound NOT metabolized | O=C1[C@H](CC[C@H](O)c2ccc(F)cc2)[C@@H](c2ccc(O)cc2)N1c1ccc(F)cc1 [EZETIMIBE]
44 | Compound NOT metabolized | CCN(CC)CCNC(C(=O)OCCC(C)C)c1ccccc1.Cl.Cl (stereo not given)
45 | Compound metabolized | CCOC(=O)[C@H](CCc1ccccc1)N[C@H]1CCc2ccccc2N(CC(=O)O)C1=O [BENAZEPRIL]

Assay: as §1, with “WLS-039” for “WLS-240”, “ERS12561746” for “ERS12561773”
Settings: 2 µM

Row | Bacterial Biotransformation | SMILES
46 | Compound NOT metabolized | O=C1[C@H](CC[C@H](O)c2ccc(F)cc2)[C@@H](c2ccc(O)cc2)N1c1ccc(F)cc1 [EZETIMIBE]
47 | Compound NOT metabolized | CCN(CC)CCNC(C(=O)OCCC(C)C)c1ccccc1.Cl.Cl (stereo not given)
48 | Compound metabolized | CCOC(=O)[C@H](CCc1ccccc1)N[C@H]1CCc2ccccc2N(CC(=O)O)C1=O [BENAZEPRIL]

Assay: as §1, with “WLS-010” for “WLS-240”, “ERS12561743” for “ERS12561773”
Settings: 2 µM

Row | Bacterial Biotransformation | SMILES
49 | Compound metabolized | O=C1[C@H](CC[C@H](O)c2ccc(F)cc2)[C@@H](c2ccc(O)cc2)N1c1ccc(F)cc1 [EZETIMIBE]
50 | Compound metabolized | CCN(CC)CCNC(C(=O)OCCC(C)C)c1ccccc1.Cl.Cl (stereo not given)
51 | Compound metabolized | CCOC(=O)[C@H](CCc1ccccc1)N[C@H]1CCc2ccccc2N(CC(=O)O)C1=O [BENAZEPRIL]

Assay: as §1, with “WLS-038” for “WLS-240”, “ERS12561745” for “ERS12561773”
Settings: 2 µM

Row | Bacterial Biotransformation | SMILES
52 | Compound NOT metabolized | O=C1[C@H](CC[C@H](O)c2ccc(F)cc2)[C@@H](c2ccc(O)cc2)N1c1ccc(F)cc1 [EZETIMIBE]
53 | Compound NOT metabolized | CCN(CC)CCNC(C(=O)OCCC(C)C)c1ccccc1.Cl.Cl (stereo not given)
54 | Compound metabolized | CCOC(=O)[C@H](CCc1ccccc1)N[C@H]1CCc2ccccc2N(CC(=O)O)C1=O [BENAZEPRIL]

Assay: as §1, with “WLS-027” for “WLS-240”, “ERS12561744” for “ERS12561773”
Settings: 2 µM

Row | Bacterial Biotransformation | SMILES
55 | Compound NOT metabolized | O=C1[C@H](CC[C@H](O)c2ccc(F)cc2)[C@@H](c2ccc(O)cc2)N1c1ccc(F)cc1 [EZETIMIBE]
56 | Compound metabolized | CCN(CC)CCNC(C(=O)OCCC(C)C)c1ccccc1.Cl.Cl (stereo not given)
57 | Compound metabolized | CCOC(=O)[C@H](CCc1ccccc1)N[C@H]1CCc2ccccc2N(CC(=O)O)C1=O [BENAZEPRIL]

Assay: as §1, with “WLS-170” for “WLS-240”, “ERS12561762” for “ERS12561773”
Settings: 2 µM

Row | Bacterial Biotransformation | SMILES
58 | Compound metabolized | O=C1[C@H](CC[C@H](O)c2ccc(F)cc2)[C@@H](c2ccc(O)cc2)N1c1ccc(F)cc1 [EZETIMIBE]
59 | Compound metabolized | CCN(CC)CCNC(C(=O)OCCC(C)C)c1ccccc1.Cl.Cl (stereo not given)
60 | Compound metabolized | CCOC(=O)[C@H](CCc1ccccc1)N[C@H]1CCc2ccccc2N(CC(=O)O)C1=O [BENAZEPRIL]
